Measurements: ChEMBL document CHEMBL5338723, “Emerging Target-Directed Approaches for the Treatment and Diagnosis of Microbial Infections” (J Med Chem, 2023)
pIC50: −log10 of the molar value. In brackets after ≈: the same amount, converted by molar mass. *1 amine or outer side, *2 acyl side, *3 side chain or, on linkers, in order; H or OH if unused. Where a SMILES comes first, the peptide text is derived from it. [ ]: non-standard residue; d: D form. X2 = Cn1c(=O)n([C@@H]2S[C@H]([C@@H](O)[C@@H](N[*:1])C(=O)[*:2])[C@H](O)[C@H]2O)cc/c1=N/C(N)=O; X3 = Cn1c(=O)ccn([C@@H]2S[C@H]([C@@H](O)[C@@H](N[*:1])C(=O)[*:2])[C@H](O)[C@H]2O)c1=O; Orn(N5-OH,N5-Ac) = CC(=O)N(O)CCC[C@H](N)C(=O)O

How the values were obtained:
Salmonella typhimurium [1] = assay: Antimicrobial activity against Salmonella enterica subsp. enterica serovar Typhimurium BAA-190 assessed as microbial growth inhibition; type: functional
Escherichia coli [2] = assay: Antimicrobial activity against Escherichia coli 25922 assessed as microbial growth inhibition; type: functional
Shigella flexneri [3] = assay: Antimicrobial activity against Shigella flexneri 2457T assessed as microbial growth inhibition; type: functional
Proteus mirabilis = assay: Antimicrobial activity against Proteus mirabilis 29906 assessed as microbial growth inhibition; type: functional
Escherichia coli [4] = assay: Antimicrobial activity against Escherichia coli BAA-196 assessed as microbial growth inhibition; type: functional
Salmonella typhi [5] = assay: Antimicrobial activity against Salmonella enterica subsp. enterica serovar Typhi 700931 assessed as microbial growth inhibition; type: functional
Shigella flexneri [6] = assay: Antimicrobial activity against Shigella flexneri M90T assessed as microbial growth inhibition; type: functional
Escherichia coli [7] = assay: Antimicrobial activity against Escherichia coli DH5alpha assessed as microbial growth inhibition; type: functional
Salmonella typhimurium [8] = assay: Antimicrobial activity against Salmonella enterica subsp. enterica serovar Typhimurium 29630 assessed as microbial growth inhibition; type: functional
Salmonella typhimurium [9] = assay: Antimicrobial activity against Salmonella enterica subsp. enterica serovar Typhimurium 19585 assessed as microbial growth inhibition; type: functional
Salmonella typhi [10] = assay: Antimicrobial activity against Salmonella enterica subsp. enterica serovar Typhi 19214 assessed as microbial growth inhibition; type: functional
Escherichia coli [11] = assay: Antimicrobial activity against Escherichia coli MG1655 expressing CTX-M-1 assessed as microbial growth inhibition in the presence of bathocuproinedisulfonic acid; type: functional
[12] = Cytotoxicity against human HepG2 cells assessed as lethal dose by CellTox Green cytotoxicity assay; type: toxicity, cell-based; details: read-out: LD50 (the source's name)
Escherichia coli [13] = assay: Antibacterial activity against Escherichia coli UTI89 assessed as inhibition of bacterial growth; type: functional
Escherichia coli [14] = assay: Antimicrobial activity against Escherichia coli MG1655 expressing NDM-1 assessed as microbial growth inhibition in the presence of bathocuproinedisulfonic acid; type: functional
Escherichia coli [15] = assay: Antimicrobial activity against Escherichia coli UTI89 expressing TEM-1 assessed as microbial growth inhibition in the presence of bathocuproinedisulfonic acid; type: functional
Escherichia coli [16] = assay: Antibacterial activity against Escherichia coli MG1655 expressing NDM-1 assessed as inhibition of bacterial growth; type: functional
Escherichia coli [17] = assay: Antibacterial activity against Escherichia coli MG1655 expressing CMY-2 assessed as inhibition of bacterial growth; type: functional
Escherichia coli [18] = assay: Antimicrobial activity against Escherichia coli MG1655 expressing TEM-1 assessed as microbial growth inhibition in the presence of bathocuproinedisulfonic acid; type: functional
Escherichia coli [19] = assay: Antimicrobial activity against Escherichia coli UTI89 expressing NDM-1 assessed as microbial growth inhibition in the presence of bathocuproinedisulfonic acid; type: functional
Escherichia coli [20] = assay: Antibacterial activity against Escherichia coli UTI89 expressing CTX-M-1 assessed as inhibition of bacterial growth; type: functional
Escherichia coli [21] = assay: Antibacterial activity against Escherichia coli MG1655 assessed as inhibition of bacterial growth; type: functional
Escherichia coli [22] = assay: Antibacterial activity against Escherichia coli UTI89 expressing NDM-1 assessed as inhibition of bacterial growth; type: functional
Escherichia coli [23] = assay: Antimicrobial activity against Escherichia coli UTI89 expressing CTX-M-1 assessed as microbial growth inhibition in the presence of bathocuproinedisulfonic acid; type: functional
Escherichia coli [24] = assay: Antimicrobial activity against Escherichia coli UTI89 expressing CMY-2 assessed as microbial growth inhibition in the presence of bathocuproinedisulfonic acid; type: functional
[25] = Cytotoxicity against human CCD 19Lu cells assessed as lethal dose by CellTox Green cytotoxicity assay; type: toxicity, cell-based; details: read-out: LD50 (the source's name)
Escherichia coli [26] = assay: Antibacterial activity against Escherichia coli MG1655 expressing CTX-M-1 assessed as inhibition of bacterial growth; type: functional
Escherichia coli [27] = assay: Antimicrobial activity against Escherichia coli MG1655 expressing CMY-2 assessed as microbial growth inhibition in the presence of bathocuproinedisulfonic acid; type: functional
Escherichia coli [28] = assay: Antibacterial activity against Escherichia coli UTI89 expressing CMY-2 assessed as inhibition of bacterial growth; type: functional
[29] = tested on: Mycobacterium tuberculosis; assay: Antimicrobial activity against Mycobacterium tuberculosis H37Rv assessed as microbial growth inhibition; type: functional
Staphylococcus aureus [30] = assay: Antimicrobial activity against Staphylococcus aureus assessed as microbial growth inhibition; type: functional
Pseudomonas aeruginosa = assay: Antibacterial activity against Pseudomonas aeruginosa assessed as microbial growth inhibition; type: functional
Proteus vulgaris = assay: Antimicrobial activity against Proteus vulgaris assessed as microbial growth inhibition; type: functional
Escherichia coli [31] = assay: Antimicrobial activity against Escherichia coli assessed as microbial growth inhibition; type: functional
Salmonella typhi [32] = assay: Antimicrobial activity against Salmonella enterica subsp. enterica serovar Typhi assessed as microbial growth inhibition; type: functional
Bacillus subtilis = assay: Antimicrobial activity against Bacillus subtilis assessed as microbial growth inhibition; type: functional
Streptococcus pneumoniae = assay: Antimicrobial activity against Streptococcus pneumoniae assessed as microbial growth inhibition; type: functional
Escherichia coli [33] = assay: Antibacterial activity against enterobactin-deficient Escherichia coli harboring delta entB assessed as microbial growth inhibition; type: functional, organism-based
Escherichia coli [34] = assay: Antibacterial activity against enterobactin-deficient Escherichia coli harboring delta entA assessed as microbial growth inhibition; type: functional, organism-based
Escherichia coli [35] = assay: Antibacterial activity against wild type Escherichia coli assessed as microbial growth inhibition; type: functional, organism-based
Salmonella enteritidis = assay: Antimicrobial activity against Salmonella enterica subsp. enterica serovar Enteritidis assessed as increase in microbial growth inhibition; type: functional
Salmonella typhimurium [36] = assay: Antimicrobial activity against Salmonella enterica subsp. enterica serovar Typhimurium assessed as increase in microbial growth inhibition; type: functional
Escherichia coli [37] = assay: Antimicrobial activity against Escherichia coli UTI89 assessed as microbial growth inhibition; type: functional
Escherichia coli [38] = assay: Antimicrobial activity against Escherichia coli ATCC 35218 assessed as microbial growth inhibition; type: functional
[39] = tested on: Acinetobacter genomosp. 13TU; assay: Antimicrobial activity against Acinetobacter nosocomialis assessed as microbial growth inhibition; type: functional
Acinetobacter baumannii = assay: Antimicrobial activity against Acinetobacter baumannii assessed as microbial growth inhibition; type: functional
Escherichia coli [40] = assay: Antibacterial activity against Escherichia coli assessed as microbial growth inhibition; type: functional
Staphylococcus aureus [41] = assay: Potency index, ratio of ciprofloxacin MIC to test compound MIC for antimicrobial activity against Staphylococcus aureus; type: functional, organism-based
Staphylococcus aureus [42] = assay: Antibacterial activity against Staphylococcus aureus assessed as microbial growth inhibition; type: functional, organism-based
Neisseria gonorrhoeae = assay: Antimicrobial activity against Neisseria gonorrhoeae assessed as microbial growth inhibition; type: functional

## H-GGAPATSANAAGAAAIVGALAGIPGGPLGVVVGAVSAGLTTAIGSTVGSGSASSSAGGGS-OH
Salmonella typhimurium [1]
  MIC: 1.1 µM
Escherichia coli [2]
  MIC: 1.1 µM
Shigella flexneri [3]
  MIC: 1.1 µM
Proteus mirabilis
  MIC: 1.1 µM
Escherichia coli [4]
  MIC: 1.1 µM
Salmonella typhi [5]
  MIC: 1.1 µM
Shigella flexneri [6]
  MIC: 1.1 µM
Escherichia coli [7]
  MIC: 1.1 µM
Salmonella typhimurium [8]
  MIC: 1.1 µM
Salmonella typhimurium [9]
  MIC: 1.1 µM
Salmonella typhi [10]
  MIC: 1.1 µM

## O=C(Cc1ccccc1)N[C@@H]1C(=O)N2C(C(=O)O)=C(CSc3ccccn3)CS[C@H]12
Escherichia coli [11]
  MIC: > 140 µM
[12]
  CC50: > 500 µM
Escherichia coli [13]
  MIC: 35 µM (≈ 15.5 µg/mL)
Escherichia coli [14]
  MIC: > 140 µM
Escherichia coli [15]
  MIC: > 140 µM
Escherichia coli [16]
  MIC: 17.5 µM (≈ 7.73 µg/mL)
Escherichia coli [17]
  MIC: 17.5 µM (≈ 7.73 µg/mL)
Escherichia coli [18]
  MIC: > 140 µM
Escherichia coli [19]
  MIC: > 140 µM
Escherichia coli [20]
  MIC: 17.5 µM (≈ 7.73 µg/mL)
Escherichia coli [21]
  MIC: 35 µM (≈ 15.5 µg/mL)
Escherichia coli [22]
  MIC: 17.5 µM (≈ 7.73 µg/mL)
Escherichia coli [23]
  MIC: > 140 µM
Escherichia coli [24]
  MIC: > 140 µM
[25]
  CC50: > 500 µM
Escherichia coli [26]
  MIC: 17.5 µM (≈ 7.73 µg/mL)
Escherichia coli [27]
  MIC: > 140 µM
Escherichia coli [28]
  MIC: 17.5 µM (≈ 7.73 µg/mL)

## O=c1[nH]c2ccccc2[nH]/c1=N/N[C@@H]1O[C@H](CO)[C@@H](O)[C@H]1O
[29]
  MIC: 0.65 µM (≈ 0.2 µg/mL)
Staphylococcus aureus [30]
  MIC: 2.07 µM
Pseudomonas aeruginosa
  MIC: 2.07 µM (≈ 0.638 µg/mL)
Proteus vulgaris
  MIC: 2.07 µM (≈ 0.638 µg/mL)
Escherichia coli [31]
  MIC: 2.07 µM
Salmonella typhi [32]
  MIC: 7.8 µM (≈ 2.4 µg/mL)

## CC(=O)N(O)CCC[C@H](NC(=O)[C@H](CCCN(O)C(C)=O)NC(=O)[C@@H](N)CCCN(O)C(C)=O)C(=O)N[C@@H](CO)C(=O)N[C@@H](C(=O)O)[C@H](O)[C@H]1S[C@@H](n2cc/c(=N/C(N)=O)n(C)c2=O)[C@H](O)[C@H]1O (H-[Orn(N5-OH,N5-Ac)][Orn(N5-OH,N5-Ac)][Orn(N5-OH,N5-Ac)]S[X2]-OH)
Staphylococcus aureus [30]
  MIC: 0.063 µg/mL
Bacillus subtilis
  MIC: 0.063 µg/mL (≈ 0.0634 µM)
Escherichia coli [31]
  MIC: 0.031 µg/mL
Streptococcus pneumoniae
  MIC: 0.063 µg/mL (≈ 0.0634 µM)

## CC(=O)Oc1cccc(C(=O)NCCNC(=O)CN2CCN(CC(=O)NCCCC(=O)NC(C(=O)N[C@@H]3C(=O)N4[C@@H]3SC(C)(C)[C@@H]4C(=O)O)c3ccccc3)CCN(CC(=O)NCCNC(=O)c3cccc(OC(C)=O)c3OC(C)=O)CCN(CC(=O)NCCNC(=O)c3cccc(OC(C)=O)c3OC(C)=O)CC2)c1OC(C)=O (some centres not stated)
Escherichia coli [33]
  pIC50: 5.68
Escherichia coli [34]
  pIC50: 5.68
Escherichia coli [35]
  pIC50: 4.52

## C[C@@H](O)[C@H]1C(=O)N2C(C(=O)O)=C(S[C@H]3C[C@@H](C(=O)N(C)C)N(C(=O)CCCc4cn(CCOCCOCCOCCNC(=O)c5cc(O)c(O)c(C(=O)N[C@H]6COC(=O)[C@@H](NC(=O)c7cccc(O)c7O)COC(=O)[C@@H](NC(=O)c7cccc(O)c7O)COC6=O)c5)nn4)C3)[C@H](C)[C@H]12
Salmonella enteritidis
  MIC: 0.01 µM
Salmonella typhimurium [36]
  MIC: 0.01 µM
Escherichia coli [37]
  MIC: 0.01 µM (≈ 0.0139 µg/mL)
Escherichia coli [38]
  MIC: 0.01 µM (≈ 0.0139 µg/mL)

## CCCCCCCCCC(=O)N[C@@H](Cc1c[nH]c2ccccc12)C(=O)N[C@H](CC(N)=O)C(=O)N[C@@H](CC(=O)O)C(=O)N[C@@H]1C(=O)NCC(=O)N[C@@H](CCCNC(=O)[C@H](CCSC)NC(=O)[C@H](Cc2ccc(O)cc2)NC(=O)[C@H](CCCCN)NC(=O)[C@@H]2CCCN2C(=O)[C@H](CO)NC(=O)[C@H](Cc2c[nH]c3ccccc23)NC(=O)CN(CCCCNC(=O)c2cccc(O)c2O)C(=O)c2cccc(O)c2O)C(=O)N[C@@H](CC(=O)O)C(=O)N[C@H](C)C(=O)N[C@@H](CC(=O)O)C(=O)NCC(=O)N[C@H](CO)C(=O)N[C@@H](C(C)CC(=O)O)C(=O)N[C@@H](CC(=O)c2ccccc2N)C(=O)O[C@@H]1C (some centres not stated)
[39]
  MIC: 1 µM (≈ 2.81 µg/mL)
Acinetobacter baumannii
  MIC: 1 µM (≈ 2.81 µg/mL)
Escherichia coli [40]
  MIC: 1 µM (≈ 2.81 µg/mL)

## Galbofloxacin
Staphylococcus aureus [41]
  Ratio: 10
Staphylococcus aureus [42]
  MIC: 93 nM

## CC(=O)N(O)CCC[C@H](NC(=O)[C@H](CCCN(O)C(C)=O)NC(=O)[C@@H](N)CCCN(O)C(C)=O)C(=O)N[C@@H](CO)C(=O)N[C@@H](C(=O)O)[C@H](O)[C@H]1S[C@@H](n2ccc(=O)n(C)c2=O)[C@H](O)[C@H]1O (H-[Orn(N5-OH,N5-Ac)][Orn(N5-OH,N5-Ac)][Orn(N5-OH,N5-Ac)]S[X3]-OH)
Neisseria gonorrhoeae
  MIC: 4 ng/mL (≈ 0.00421 µM)
